Data set [1] concerns the target PDE4B (Homo sapiens (Human), UniProt Q07343). As to the kind of experiment: PDE4B inhibition. Format: biochemical. As to conditions: Table 3a.
Data set [2] has as its system IL-4/pSTAT6. As to the kind of experiment: Cytokine function assay IL-4/pSTAT6 in PBMC. Format: cell-based. As to conditions: PBMC, read-out: IC50 IL-4, Table 3a. How it is done: (§1) Cytokine Function Assay Protocols for IL-4/pSTAT6 and GM-CSF/pSTAT5
IL-4/pSTAT6: • PBMC from a healthy donor was plated onto a 96 w plate. Compound was added and incubated for 1 hour (at 37° C.). After 1 hour, cells were stimulated with IL-4 for 15 minutes. Cells were fixed and stained with anti-pSTAT6 antibody. After staining, cells were read on a Beckman-Coulter CytoFLEX.

Data set [3] in a line: Dog LM (liver microsome) assay. Format: in vitro ADME. Conditions: Table 3a; predicted clearance as percent of liver blood flow, 1 μM, 1 mg/ml microsomal protein. The method, boiled down:
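Pooled Beagle liver microsomes (1 mg/ml protein), compound 1 μM, Tris pH 7.6 with 5 mM MgCl2, 37 °C, started with 1 mM NADPH; parent loss by LC-MS/MS over several time points.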

The target in data set [4] is JAK2 (Homo sapiens (Human), UniProt O60674). As to the kind of experiment: Biochemical kinase assay (33P-ATP filter-binding), JAK2. An excerpt: (§2) Biochemical Kinase Assay Protocol (JAK)
(§3) Reaction Procedure: • 1. […] Detected kinase activity by filter-binding method.

Data set [5] has as its system GM-CSF/pSTAT5. As to the kind of experiment: Cytokine function assay GM-CSF/pSTAT5 in lysed whole blood cells. It is filed as cell-based. Conditions: Whole blood cell, read-out: IC50 GM-CSF. The method, then:
as §1
GM-CSF/pSTAT5: • Whole blood from a healthy donor was lysed to remove red blood cells. Cells were plated onto a 96 well plate. Compound was added and incubated for 1 hour (at 37° C.). After 1 hour, cells were stimulated with GM-CSF for 15 minutes. Cells were fixed and stained with anti-pSTAT5 antibody. After staining, cells were read on a Beckman-Coulter CytoFLEX.

In data set [6] the test system is IL-31. As to the kind of experiment: Cytokine function assay for IL-31 in DH82 cells. As to conditions: Canis lupus familiaris. It is filed as cell-based, canine. How it is done: Cytokine Function Assay Protocol for IL-31
The protocol for the cytokine function assay for IL-31 is set forth below: • 1. […] After 24 hr, wash with 37° C. pre-warmed PBS (100 uL/well). • 3. Add serum-free MEM, 90 uL per well, 2 hr, 37° C. • 4. Add 10 uL 10×IL-31 (40, 10, 2.5 ug/mL) in duplicate, 5 min, 37° C. • 5. Remove medium, add 60 uL lysis buffer per well. Agitate on a plate shaker (˜350 rpm) for 10 min at RT. • 6. […] Add 6 uL Acceptor Mix, cover with aluminum foil, quickly spin at 1000 rpm, shake at 120 rpm for 2 min, then incubate at RT for 1 hr. • 8. Add 6 uL Donor Mix, cover with aluminum foil, quickly spin at 1000 rpm, shake at 120 rpm for 2 min, then incubate at RT for 1 hr. • 9. Measure the fluorescence using EnVision™ plate reader.

For data set [7], the target named is JAK1 (Homo sapiens (Human), UniProt P23458). As to the kind of experiment: Biochemical kinase assay (33P-ATP filter-binding), JAK1.
From the text: as §2, §3

Setting [8] is: DH82, Table 3a, read-out: IC50 IL-31.

Like-named read-outs stand apart in the source and are kept apart here. Some results are limits rather than exact numbers.

Sequence of JAK2 (O60674 whole entry, species assumed): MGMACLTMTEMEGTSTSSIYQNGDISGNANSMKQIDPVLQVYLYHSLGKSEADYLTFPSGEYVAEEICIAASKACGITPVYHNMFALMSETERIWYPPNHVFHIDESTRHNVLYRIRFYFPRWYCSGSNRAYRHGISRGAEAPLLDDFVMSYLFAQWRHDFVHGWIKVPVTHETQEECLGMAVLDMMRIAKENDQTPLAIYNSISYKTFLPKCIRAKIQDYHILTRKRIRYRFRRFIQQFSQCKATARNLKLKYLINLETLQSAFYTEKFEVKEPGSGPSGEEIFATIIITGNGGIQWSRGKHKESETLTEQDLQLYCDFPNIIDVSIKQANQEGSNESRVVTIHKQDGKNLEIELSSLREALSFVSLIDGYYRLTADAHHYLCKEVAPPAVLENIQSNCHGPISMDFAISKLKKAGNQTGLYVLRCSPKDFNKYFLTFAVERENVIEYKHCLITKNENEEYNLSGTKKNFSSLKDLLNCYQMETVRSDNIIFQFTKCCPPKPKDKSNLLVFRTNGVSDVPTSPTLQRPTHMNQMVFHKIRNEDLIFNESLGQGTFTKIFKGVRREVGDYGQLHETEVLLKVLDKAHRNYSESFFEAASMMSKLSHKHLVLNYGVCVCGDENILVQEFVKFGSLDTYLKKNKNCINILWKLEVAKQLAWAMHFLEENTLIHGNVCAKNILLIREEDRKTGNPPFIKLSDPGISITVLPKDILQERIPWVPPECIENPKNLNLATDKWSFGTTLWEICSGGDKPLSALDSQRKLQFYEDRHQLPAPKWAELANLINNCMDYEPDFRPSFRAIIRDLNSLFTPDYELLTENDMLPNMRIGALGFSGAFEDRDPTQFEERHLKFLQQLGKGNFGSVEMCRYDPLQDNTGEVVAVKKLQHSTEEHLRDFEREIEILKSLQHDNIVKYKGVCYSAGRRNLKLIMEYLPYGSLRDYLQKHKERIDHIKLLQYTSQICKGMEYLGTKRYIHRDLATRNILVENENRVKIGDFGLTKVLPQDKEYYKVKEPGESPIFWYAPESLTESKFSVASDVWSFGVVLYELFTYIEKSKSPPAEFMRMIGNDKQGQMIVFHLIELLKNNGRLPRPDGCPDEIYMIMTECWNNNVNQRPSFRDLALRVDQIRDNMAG
Sequence of PDE4B (Q07343 whole entry, species assumed): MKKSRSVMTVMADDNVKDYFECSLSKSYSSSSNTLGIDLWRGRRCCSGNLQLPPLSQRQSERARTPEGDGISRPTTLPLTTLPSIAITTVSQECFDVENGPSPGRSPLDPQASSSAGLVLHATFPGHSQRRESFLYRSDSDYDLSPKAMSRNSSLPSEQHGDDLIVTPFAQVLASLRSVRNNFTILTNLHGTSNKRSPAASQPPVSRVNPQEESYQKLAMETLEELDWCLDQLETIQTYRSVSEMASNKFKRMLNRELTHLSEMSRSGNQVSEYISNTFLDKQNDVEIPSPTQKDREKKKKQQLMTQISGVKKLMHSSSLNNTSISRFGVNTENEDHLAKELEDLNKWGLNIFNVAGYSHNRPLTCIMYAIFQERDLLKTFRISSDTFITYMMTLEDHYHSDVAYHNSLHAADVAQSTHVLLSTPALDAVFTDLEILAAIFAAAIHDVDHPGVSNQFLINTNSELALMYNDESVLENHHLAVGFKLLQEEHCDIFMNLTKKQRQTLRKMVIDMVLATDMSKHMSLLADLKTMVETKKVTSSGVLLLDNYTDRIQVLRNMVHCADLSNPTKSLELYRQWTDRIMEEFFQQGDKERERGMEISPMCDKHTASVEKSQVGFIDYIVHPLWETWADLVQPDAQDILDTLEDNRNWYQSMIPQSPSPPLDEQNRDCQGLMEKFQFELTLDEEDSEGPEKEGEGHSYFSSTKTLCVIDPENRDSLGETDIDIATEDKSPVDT
Sequence of JAK1 (P23458 whole entry, species assumed): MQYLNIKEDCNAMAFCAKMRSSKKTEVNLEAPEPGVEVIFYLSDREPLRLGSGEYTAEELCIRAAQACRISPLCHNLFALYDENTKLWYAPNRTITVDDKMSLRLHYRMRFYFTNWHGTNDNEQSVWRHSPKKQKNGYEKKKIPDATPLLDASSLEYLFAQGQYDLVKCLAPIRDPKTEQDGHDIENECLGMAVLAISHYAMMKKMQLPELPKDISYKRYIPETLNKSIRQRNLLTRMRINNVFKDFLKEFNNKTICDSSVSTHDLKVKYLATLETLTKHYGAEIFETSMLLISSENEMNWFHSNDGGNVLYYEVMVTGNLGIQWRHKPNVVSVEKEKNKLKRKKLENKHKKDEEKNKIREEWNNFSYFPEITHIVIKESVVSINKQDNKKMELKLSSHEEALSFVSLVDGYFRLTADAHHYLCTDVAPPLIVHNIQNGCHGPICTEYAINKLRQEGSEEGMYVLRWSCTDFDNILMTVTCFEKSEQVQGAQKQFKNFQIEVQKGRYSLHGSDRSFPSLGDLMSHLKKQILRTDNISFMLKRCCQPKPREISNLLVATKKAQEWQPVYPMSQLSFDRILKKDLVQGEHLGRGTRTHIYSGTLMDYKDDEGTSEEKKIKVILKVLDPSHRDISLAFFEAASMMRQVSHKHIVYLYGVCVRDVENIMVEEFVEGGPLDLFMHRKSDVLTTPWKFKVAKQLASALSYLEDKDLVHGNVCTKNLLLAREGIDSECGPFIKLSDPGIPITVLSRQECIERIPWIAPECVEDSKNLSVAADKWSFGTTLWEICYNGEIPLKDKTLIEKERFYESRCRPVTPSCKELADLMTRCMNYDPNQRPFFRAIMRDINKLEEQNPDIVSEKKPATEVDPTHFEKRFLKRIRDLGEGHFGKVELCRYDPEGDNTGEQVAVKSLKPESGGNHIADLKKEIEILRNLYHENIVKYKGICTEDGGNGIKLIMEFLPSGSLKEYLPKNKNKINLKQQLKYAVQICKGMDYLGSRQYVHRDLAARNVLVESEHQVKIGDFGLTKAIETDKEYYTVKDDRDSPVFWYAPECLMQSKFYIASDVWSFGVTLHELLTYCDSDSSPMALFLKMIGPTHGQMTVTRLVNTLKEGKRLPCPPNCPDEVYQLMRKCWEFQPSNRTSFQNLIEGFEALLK

On to `Cc1cnc(Nc2ccc3c(c2)C(C)(C)OB3O)nc1N[C@@H]1COCC[C@H]1C#N` (relative stereo) [Example 032, (trans)-3-[[2-[(1-hydroxy-3,3-dimethyl-2,1-benzoxaborol-5-yl)amino]-5-methyl-pyrimidin-4-yl]amino]tetrahydropyran-4-carbonitrile], for which the IC50 (usually the concentration needed to halve the response being measured) in data set [1] was 762 nM; in data set [2] it was 66.7 nM; in data set [4] (Table 3a, read-out: IC50 JAK2) it was 3.3 nM; in data set [5], 901 nM; in data set [6] (DH82, read-out: IC50 IL-31) it was 51 nM; in data set [7] (Table 3a, read-out: IC50 JAK1), 0.6 nM. Also, in data set [3], the “Dog LM QH” value is on record as 42.0%.
Turning to `Cc1cnc(Nc2cc(F)c3c(c2)COB3O)nc1N[C@@H]1COCC[C@H]1C#N` (single isomer, unassigned) [Example 029a, (trans)-3-[[2-[(7-fluoro-1-hydroxy-3H-2,1-benzoxaborol-5-yl)amino]-5-methyl-pyrimidin-4-yl]amino]tetrahydropyran-4-carbonitrile], the half-maximal inhibitory concentration (IC50) in data set [1] came to 381 nM; in data set [2] it was 48.8 nM; in data set [4] (Table 3a, read-out: IC50 JAK2), 3.7 nM; in data set [5], 1170 nM; in data set [6] (setting [8]), 19.8 nM; in data set [7] (Table 3a, read-out: IC50 JAK1) it was 0.02 nM. In addition, the “Dog LM QH” value in data set [3] is given as below 19.9%.
Regarding `Cc1cnc(Nc2cc(Cl)c3c(c2)COB3O)nc1NC1COCCC1C#N` (racemic) [Example 031, (trans)-3-((2-((7-chloro-1-hydroxy-1,3-dihydrobenzo[c][1,2]oxaborol-5-yl)amino)-5-methylpyrimidin-4-yl)amino)tetrahydro-2H-pyran-4-carbonitrile], the IC50 in data set [2] was 67.5 nM; in data set [4] (Table 3a, read-out: IC50 JAK2) it was 40.8 nM; in data set [5] it was 3150 nM; in data set [6] (setting [8]), 27.6 nM; in data set [7] (Table 3a, read-out: IC50 JAK1), 1.2 nM. Moreover, the “Dog LM QH” value in data set [3] is below 19.9%.
As for `Cc1cnc(Nc2cc(C)c3c(c2)COB3O)nc1N[C@@H]1COCC[C@H]1C#N` (relative stereo) [Example 027, (trans)-3-((2-((1-hydroxy-7-methyl-1,3-dihydrobenzo[c][1,2]oxaborol-5-yl)amino)-5-methylpyrimidin-4-yl)amino)tetrahydro-2H-pyran-4-carbonitrile], the IC50 in data set [2] was 79.9 nM; in data set [4] (Table 3a, read-out: IC50 JAK2), 3.5 nM; in data set [5], 1200 nM; in data set [6] (setting [8]), 81.3 nM; in data set [7] (Table 3a, read-out: IC50 JAK1), 0.6 nM. Moreover, in data set [3], the “Dog LM QH” value is 30.1%.
With `Cc1cnc(Nc2cc3c(c(C(F)(F)F)c2)B(O)OC3)nc1N[C@H]1CCCC[C@@H]1C#N` (single isomer, unassigned) [Example 011a, (trans)-2-((2-((1-hydroxy-7-(trifluoromethyl)-1,3-dihydrobenzo[c][1,2]oxaborol-5-yl)amino)-5-methylpyrimidin-4-yl)amino)cyclohexane-1-carbonitrile], the 50% inhibitory concentration (IC50) came to 151 nM in data set [2]; 11.7 nM in data set [4] (Table 3a, read-out: IC50 JAK2); 1480 nM in data set [5]; 107 nM in data set [6] (setting [8]); 0.4 nM in data set [7] (Table 3a, read-out: IC50 JAK1). Besides, the “Dog LM QH” value in data set [3] is below 19.9%.
Consider `Cc1cnc(Nc2cc(Cl)c3c(c2)COB3O)nc1NC1CCCCC1C#N` (racemic) [Example 010, (trans)-2-[[2-[(7-chloro-1-hydroxy-1,3dihydrobenzo[c][1,2]oxaboroll-5-yl)amino]-5-methyl-pyrimidin-4-yl]amino]cyclohexane-1-carbonitrile], for which the concentration for half-maximal inhibition (IC50) in data set [2] was 71.7 nM; in data set [4] (Table 3a, read-out: IC50 JAK2), 19.3 nM; in data set [5], 1020 nM; in data set [6] (setting [8]) it was 18.1 nM; in data set [7] (Table 3a, read-out: IC50 JAK1), 0.7 nM. In addition, the “Dog LM QH” value in data set [3] is below 19.9%.
For `Cc1cnc(Nc2ccc3c(c2)COB3O)nc1N[C@@H]1CCCC[C@H]1C#N` (relative stereo) [Example 008, (trans)2-[[2-[(1-hydroxy-3H-2,1-benzoxaborol-5-yl)amino]-5-methyl-pyrimidin-4-yl]amino]cyclohexane-1-carbonitrile], the 50% inhibitory concentration (IC50) was determined as 95.9 nM in data set [2]; 3.4 nM in data set [4] (Table 3a, read-out: IC50 JAK2); 774 nM in data set [5]; 40.2 nM in data set [6] (setting [8]); 0.3 nM in data set [7] (Table 3a, read-out: IC50 JAK1). In addition, the “Dog LM QH” value in data set [3] was below 19.9%.
Consider `N#CC1CCOCC1Nc1nc(Nc2cc(F)c3c(c2)COB3O)ncc1Cl` (stereo not shown) [Example 050, 3-((5-chloro-2-((7-fluoro-1-hydroxy-1,3-dihydrobenzo[c][1,2]oxaborol-5-yl)amino)pyrimidin-4-yl)amino)tetrahydro-2H-pyran-4-carbonitrile], for which the half-inhibitory concentration (IC50) amounted to 832 nM in data set [1]; 94.8 nM in data set [2]; 1.2 nM in data set [4] (Table 3a, read-out: IC50 JAK2); 2100 nM in data set [5]; 23.9 nM in data set [6] (setting [8]); 0.2 nM in data set [7] (Table 3a, read-out: IC50 JAK1). The “Dog LM QH” value in data set [3] was below 19.9%.
For `N#C[C@@H]1CCCC[C@H]1Nc1nc(Nc2ccc3c(c2)COB3O)ncc1Cl` (relative stereo) [Example 017, (trans)-2-((5-chloro-2-((1-hydroxy-1,3-dihydrobenzo[c][1,2]oxaborol-5-yl)amino)pyrimidin-4-yl)amino)cyclohexane-1-carbonitrile], the IC50 was 233 nM in data set [2]; 4.2 nM in data set [4] (Table 3a, read-out: IC50 JAK2); 10000 nM in data set [5]; 35.4 nM in data set [6] (setting [8]); 0.4 nM in data set [7] (Table 3a, read-out: IC50 JAK1). The “Dog LM QH” value in data set [3] is listed as below 19.9%.
As to `Cc1cnc(Nc2cc(C)c3c(c2)COB3O)nc1N[C@@H]1CCC[C@H]1C#N` (relative stereo) [Example 002, (trans)-2-((2-((1-hydroxy-7-methyl-1,3-dihydrobenzo[c][1,2]oxaborol-5-yl)amino)-5-methylpyrimidin-4-yl)amino)cyclopentane-1-carbonitrile], the 50% inhibitory concentration (IC50) in data set [1] is 832 nM; in data set [2], 94.8 nM; in data set [4] (Table 3a, read-out: IC50 JAK2), 12.1 nM; in data set [5], 2100 nM; in data set [6] (setting [8]), 23.9 nM; in data set [7] (Table 3a, read-out: IC50 JAK1), 0.9 nM. Besides, the “Dog LM QH” value in data set [3] is recorded as below 19.9%.
`N#C[C@H]1CCOC[C@@H]1Nc1nc(Nc2cc3c(c(C(F)(F)F)c2)B(O)OC3)ncc1Cl` (single isomer, unassigned) [Example 042a, (trans)-3-((5-chloro-2-((1-hydroxy-7-(trifluoromethyl)-1,3-dihydrobenzo[c][1,2]oxaborol-5-yl)amino)pyrimidin-4-yl)amino)tetrahydro-2H-pyran-4-carbonitrile]: the IC50 in data set [2] amounted to 148 nM; in data set [4] (Table 3a, read-out: IC50 JAK2) it was 7.3 nM; in data set [5], 2970 nM; in data set [6] (setting [8]), 9.7 nM; in data set [7] (Table 3a, read-out: IC50 JAK1) it was 0.4 nM. For the same compound, in data set [3], the “Dog LM QH” value is listed as below 19.9%.
Take `Cc1cnc(Nc2cc(Cl)c3c(c2)COB3O)nc1NC1CCCC[C@@H]1C#N` (single isomer, unassigned) [Example 010a, (trans)-2-[[2-[(7-chloro-1-hydroxy-3H-2,1-benzoxaborol-5-yl)amino]-5-methyl-pyrimidin-4-yl]amino]cyclohexane-1-carbonitrile]: the half-maximal inhibitory concentration (IC50) came to 37.9 nM in data set [2]; 4 nM in data set [4] (Table 3a, read-out: IC50 JAK2); 469 nM in data set [5]; 12.7 nM in data set [6] (setting [8]); 0.6 nM in data set [7] (Table 3a, read-out: IC50 JAK1). The “Dog LM QH” value in data set [3] is on record as below 19.9%.
Take `Cc1cnc(Nc2ccc3c(c2)COB3O)nc1NC1COCCC1C#N` (racemic) [Example 026, (trans)-3-[[2-[(1-hydroxy-3H-2,1-benzoxaborol-5-yl)amino]-5-methyl-pyrimidin-4-yl]amino]tetrahydropyran-4-carbonitrile]: the IC50 turned out to be 91.9 nM in data set [2]; 7 nM in data set [4] (Table 3a, read-out: IC50 JAK2); 2660 nM in data set [5]; 64.6 nM in data set [6] (setting [8]); 0.5 nM in data set [7] (Table 3a, read-out: IC50 JAK1). Moreover, the “Dog LM QH” value in data set [3] is recorded as below 19.9%.
Turning to `Cc1cc(Nc2ncc(Cl)c(N[C@H]3COCC[C@@H]3C#N)n2)cc2c1B(O)OC2` (single isomer, unassigned) [Example 041a, (trans)-3-[[5-chloro-2-[(1-hydroxy-7-methyl-3H-2,1-benzoxaborol-5-yl)amino]pyrimidin-4-yl]amino]tetrahydropyran-4-carbonitrile], the half-inhibitory concentration (IC50) was 47 nM in data set [2]; 3.1 nM in data set [4] (IC50 JAK2, Table 3a); above 10000 nM in data set [5]; 40 nM in data set [6] (setting [8]); 0.8 nM in data set [7] (IC50 JAK1, Table 3a). Moreover, the “Dog LM QH” value in data set [3] is on record as below 19.9%.

The values are drawn from patent US20240132525A1, “BORON […], CO[…], METHODS AND USES THEREOF” (priority 2022, published 2024).
